Some test systems named below: A498 renal; HCC-2998 colon; HL-60(TB) leukemia; RXF 393 renal; SK-MEL-5 melanoma; SNB-19 CNS; SNB-75 CNS; SR leukemia; TK-10 renal; UACC-257 melanoma.
Holding throughout (assay): growth of human tumour cells (NCI), 48 h

SMILES strings stand for the structures.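 Five compound concentrations were applied to cells in 96-well plates for 48 hours; endpoints were derived by simple linear interpolation of the resulting dose-response curve. GI50 marks 50% less growth. At the TGI there is no net growth.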

For `COC(=O)C12C3C4C1C1C2C3C41C(=O)OC(C)(C)C` (stereo not given), the TGI in the assay with A498 renal, with HCC-2998 colon, in the assay on HL-60(TB) leukemia, in the assay on RXF 393 renal, in the assay with SK-MEL-5 melanoma and with SNB-19 CNS was over 100 µM in each case. The TGI in the assay with SNB-75 CNS was over 100 µM; in the assay with SR leukemia it was 44.1 µM; with TK-10 renal it was over 100 µM; in the assay with UACC-257 melanoma, over 100 µM.
Turning to `Cc1cc(Br)cc(C)c1NC(=O)C(=O)C(C(=O)c1ccc2ccccc2c1)C1OC(=O)c2ccccc21` (stereo not given), the TGI turned out to be 25.6 µM in the assay on A498 renal; 24.7 µM in the assay on HCC-2998 colon; 30.2 µM in the assay with HL-60(TB) leukemia; 17.8 µM in the assay on RXF 393 renal; 23.8 µM in the assay with SK-MEL-5 melanoma; 29.3 µM in the assay with SNB-19 CNS. Besides, the TGI in the assay with SNB-75 CNS came out at 43.9 µM; in the assay on SR leukemia it was 33.9 µM; with TK-10 renal, 36.9 µM; in the assay with UACC-257 melanoma, 17.5 µM.
With `CC1OC(n2cc(F)c(=O)[nH]c2=O)C=CC1O` (stereo not given), the TGI in the assay with A498 renal, with HCC-2998 colon, in the assay on HL-60(TB) leukemia, with RXF 393 renal, with SK-MEL-5 melanoma and in the assay with SNB-19 CNS was over 100 µM each time. For the same molecule, the TGI with SNB-75 CNS, in the assay with SR leukemia, in the assay with TK-10 renal and with UACC-257 melanoma was over 100 µM each time.
Consider `CCOc1nc(-c2ccccc2)cc2c(O)c(-c3nnco3)[nH]c(=O)c12`, for which the GI50 in the assay on A498 renal is 2.56 µM; in the assay on HCC-2998 colon, 5.57 µM; in the assay on HL-60(TB) leukemia, 5.86 µM; in the assay with RXF 393 renal, 3.71 µM; in the assay on SK-MEL-5 melanoma, 2.16 µM; with SNB-19 CNS it was 6.13 µM. In addition, the GI50 with SNB-75 CNS was 1.92 µM; in the assay on SR leukemia it was 3.85 µM; in the assay with TK-10 renal, 4.59 µM; with UACC-257 melanoma, 3.2 µM. For the same molecule, the TGI was 58 µM in the assay with A498 renal; over 100 µM in the assay on HCC-2998 colon; over 100 µM with HL-60(TB) leukemia; 25.2 µM with RXF 393 renal; 8.18 µM with SK-MEL-5 melanoma; over 62.4 µM in the assay with SNB-19 CNS. For the same molecule, the TGI was 8.99 µM with SNB-75 CNS, over 100 µM in the assay with SR leukemia, 35.2 µM with TK-10 renal and over 100 µM in the assay on UACC-257 melanoma.
As to `C[C@H]1c2cccc(O)c2C(O)=C2C(=O)[C@]3(O)C(O)=C(C(N)=O)C(=O)[C@@H](N(C)C)[C@@H]3[C@@H](O)[C@@H]21`, the GI50 was 2.86 µM in the assay on A498 renal; 2.97 µM with HCC-2998 colon; 2.3 µM with HL-60(TB) leukemia; 3.79 µM in the assay on RXF 393 renal; 1.9 µM with SK-MEL-5 melanoma; 3.02 µM in the assay with SNB-19 CNS. For the same molecule, the GI50 was 1.81 µM in the assay with SNB-75 CNS, 1.98 µM in the assay on SR leukemia, 4.83 µM with TK-10 renal and 3.19 µM in the assay with UACC-257 melanoma. Moreover, the TGI in the assay with A498 renal is 10.4 µM; in the assay with HCC-2998 colon, 12.7 µM; in the assay with HL-60(TB) leukemia, 6.56 µM; with RXF 393 renal, 33.9 µM; in the assay on SK-MEL-5 melanoma it was 4.12 µM; with SNB-19 CNS, 14.5 µM. Also, the TGI in the assay with SNB-75 CNS worked out at 6.66 µM; with SR leukemia, 4.67 µM; in the assay with TK-10 renal it was 47.2 µM; in the assay on UACC-257 melanoma, 13.9 µM.
Regarding `COC(=O)C(C(=O)C(=O)Nc1cccc(OC)c1)c1cnc2ccccc2n1` (stereo not given), the TGI with A498 renal, with HCC-2998 colon, in the assay on HL-60(TB) leukemia, in the assay on RXF 393 renal, in the assay on SK-MEL-5 melanoma and with SNB-19 CNS was over 100 µM in each case. The TGI in the assay with SNB-75 CNS, in the assay on SR leukemia, in the assay with TK-10 renal and in the assay on UACC-257 melanoma was over 100 µM in each case.
For the molecule `COc1ccc(N2C(=O)C(c3ccccc3)(c3ccccc3)C23C(=O)N(C)c2ccccc23)cc1` (stereo not given), the GI50 in the assay on A498 renal, with HCC-2998 colon, in the assay with HL-60(TB) leukemia, in the assay on RXF 393 renal, in the assay with SK-MEL-5 melanoma and in the assay with SNB-19 CNS was over 100 µM in each case. The GI50 in the assay on SNB-75 CNS is 89.1 µM; with SR leukemia, over 100 µM; in the assay on TK-10 renal it was over 100 µM; with UACC-257 melanoma, over 100 µM. Besides, the TGI in the assay with A498 renal, in the assay on HCC-2998 colon, with HL-60(TB) leukemia, in the assay on RXF 393 renal, in the assay on SK-MEL-5 melanoma and with SNB-19 CNS was over 100 µM in each case. Further, the TGI in the assay with SNB-75 CNS, in the assay with SR leukemia, in the assay on TK-10 renal and in the assay on UACC-257 melanoma was over 100 µM throughout.
Take `O=C(O/N=C1/CCCC/C1=C\c1ccccc1)c1ccccc1`: the TGI is 0.514 µM in the assay on A498 renal; over 100 µM with HCC-2998 colon; 40.2 µM with HL-60(TB) leukemia; over 100 µM with RXF 393 renal; 0.34 µM in the assay with SK-MEL-5 melanoma; over 100 µM in the assay with SNB-19 CNS. The TGI in the assay with SNB-75 CNS, with SR leukemia, in the assay on TK-10 renal and with UACC-257 melanoma was over 100 µM each time.
Turning to `O=C(Nc1ccc(OS(=O)(=O)c2ccccc2)cc1)C12CC3CC(CC(C3)C1)C2`, the GI50 with A498 renal was 2.04 µM; with HCC-2998 colon, 5.48 µM; with HL-60(TB) leukemia, 2.68 µM; in the assay on RXF 393 renal, 5.12 µM; in the assay with SK-MEL-5 melanoma, 3.12 µM; in the assay with SNB-19 CNS it was over 100 µM. In addition, the GI50 is 7.16 µM in the assay with SNB-75 CNS, 3.6 µM in the assay with SR leukemia, over 100 µM in the assay with TK-10 renal and 13.5 µM with UACC-257 melanoma. The TGI with A498 renal was 48.7 µM; in the assay on HCC-2998 colon, over 100 µM; in the assay on HL-60(TB) leukemia it was over 100 µM; in the assay with RXF 393 renal it was over 100 µM; in the assay on SK-MEL-5 melanoma, over 100 µM; in the assay with SNB-19 CNS it was over 100 µM. The TGI in the assay with SNB-75 CNS, with SR leukemia, in the assay on TK-10 renal and in the assay on UACC-257 melanoma was over 100 µM throughout.

For the origin of these results see PubChem BioAssay (NCI).
